Values quoted from earlier work in patent publication US20050118265A1, “Antifungal oral dosage forms and the methods for preparation” (priority 2003, published 2005).

Assays:
[1] = pH 8.1
[2] = based on extrapolation of values obtained from methanolic solutions

log (n-octanol/water) partition coefficient [1]: 5.66
solubility in alcohol (alcohol): very slightly soluble
solubility in dichloromethane (dichloromethane): freely soluble
solubility in ethanol (ethanol alone): poorly soluble
solubility in water (water): insoluble
pKa [2]: 3.70
Structure (SMILES): CCC(C)n1ncn(-c2ccc(N3CCN(c4ccc(OCC5COC(Cn6cncn6)(c6ccc(Cl)cc6Cl)O5)cc4)CC3)cc2)c1=O (racemic) [Itraconazole, (±)-1-[(RS)-sec-butyl]-4-[p-[4-[p-[[(2R,4S)-2-(2,4-dichlorophenyl)-2-(1H-1,2,4-triazol-1-ylmethyl)-1,3-dioxolan-4-yl]methoxy]phenyl]-1-piperazinyl]phenyl]-Ä 2-1,2,4-triazolin-5-one]
